Results published in US6958360B2, “Attractant pheromone for the Colorado potato beetle” (The United States of America as represented by the …, priority 2001, dated 2005).

What was measured:
[1] = system: Colorado potato beetle (CPB); assay: Open Y-track olfactometer behavioral bioassay, optical isomers vs solvent control; assay type: in vivo, Leptinotarsa decemlineata; conditions: serial source loads 0.0001 to 1.0 μg vs solvent control, male and female
Procedure: Chemical blends and plant foliage were tested for behavioral activity in an open Y-track olfactometer modified after Visser and Piron (Visser, J. H., and P. G. M. Piron, Proceedings of the Section Experimental and Applied Entomology of the Netherlands Entomological Society Amsterdam, 9: 41-46 (1998)) and described in detail by Dickens (Dickens, J. C., Agric. Forest Entomol., 1: 47-54 (1999)). In brief, odorous stimuli emanating from volatile collections from CPB males feeding on potato plants or the male-specific compound on filter paper discs (2.5 cm dia.; Whatman™ #1 filter paper) in Ehrlenmeyer flasks were delivered to either side of the device. Hydrocarbon free air that was humidified by passing through distilled water carried the odor molecules to either arm of the bioassay apparatus. Treatments were replenished after 30 min of use in the bioassay apparatus. Airflow was regulated to 1 l/min by flowmeters. Experiments were conducted in a darkened room at 22° C. in which the only source of light was that associated with the bioassay device. For all bioassays, at least 20 males and 20 females were tested.
Volatile collections from male CPB feeding for three hours on a potato plant and serial dilutions of the male specific compound were tested as 10 μl aliquots placed on a filter paper disc as described above. The male specific compound was tested at 1.0 μg/10 μl solvent (hexane) and in a dilution series ranging from 0.0001 to 1.0 μg/10 μl solvent.
Prior to testing at age 7-14 days, unmated insects were held individually in 5.5 oz. cups, provided with fresh potato foliage on a continuous basis, and maintained under incubator conditions of a 16:8 light:dark cycle, 80-90% R.H., and “day” and “night” temperatures of 25° C. and 23° C., respectively. On the day of testing, insects were transferred to smaller 1 oz. cups and held for 1-3 hrs with moist filter paper but no foliage, then held in darkness for an additional 1-2 hrs.
Individual testing in a darkened room at 22° C. began by allowing the beetle to climb onto or be placed approximately midway up the vertical rod of the “T.” In response to a positive phototaxis to light from a flashlight mounted above the “T” and negative geotaxis, the beetles generally climbed upward. Once the insect began waving its antennae, presumably in response to test odors, its forward progress continued. Orientation was scored as soon as the test insect had moved completely from the horizontal to one of the 45 extension arms of the bioassay device. Following each test, the bioassay device was cleaned with acetone to remove contamination left by the insect. For any given series of tests, approximately half were done with the treatment and associated test apparatus on one side, and half were done with them on the other side.
Laboratory bioassays were assessed for significant differences by the hypothesis on binomial proportions based on the standard normal approximation (Brase, C. H., and C. P. Brase (1983), Understanding Statistics, Lexington, Mass.: D. C. Heath).

[2] = system: antennal olfactory receptors (short sensillum on the penultimate antennal segment of a CPB); assay: Single sensillum (single cell) recording of receptor neuron response; design: species or system Leptinotarsa decemlineata; conditions: 100 ng source load; solvent control 8
Procedure: (§1) Sensitivity of antennal olfactory receptors for the racemate and optical isomers of the male specific compound were tested using coupled GC/EAD and single sensillum recording techniques. GC/EAD tests involved injection of 1 μl of serial dilutions of 3,7-dimethyl-2-oxo-oct-6-ene-1,3-diol (CPB I).

male CPB = assay: Enhancement of production of male-specific compound CPB I (24 hour volatile collection); assay type: in vivo, Leptinotarsa decemlineata
Procedure: CPB I=male-specific compound; P=6-methyl-5-hepten-2-one; FID=response of flame ionization detector. Electroantennogram (EAD) response is included for A-C.
Volatiles were collected from male CPB feeding on 4.8 g of potato foliage in the 3 L VCC. Collections were made continuously for a 24-hour period with a single VCT. Subsequently, volatiles from groups of 20 female CPB were similarly collected in the 3 L VCC continuously for 24 hours with a single VCT.
In an attempt to increase production of the male specific compound, males were subject to the following treatments: JHIII in acetone, extirpation of both antennae, and extirpation of both antennae+JHIII in acetone. All treatments were repeated at least three times. For the JHIII treatment, […] of a 5 μg/ml solution of JHIII was applied to the prothoracic sternum between the coxae. Antennae were removed at the third segment from the proximal end. All treatments were performed 1 hour before placing beetles into the VCC. For the treatment with both antennae removed+JHIII, three separate collections were made continuously for at least seven days following treatment. The collection chamber was cleaned, rinsed, and fresh foliage added daily.

CPB adult antenna = assay: Coupled GC/electroantennogram detection (GC/EAD, EAG); design: species or system Leptinotarsa decemlineata; conditions: for EAD response to compound in volatile collections (in words): volatiles from potato plants / CPB feeding on plant
Procedure: Vertical bars represent standard errors (N=6, 3 males and 3 females).
GC/EAD analysis of volatile collections: One microlitre samples of volatile collections were injected into a Hewlett Packard™ Model 5890A gas chromatograph (GC) equipped with an HP-5 capillary column (crosslinked 5% PH ME Siloxane; film thickness 0.25 μm; length 30 m; i.d. 0.25 mm) and flame ionization detector (FID). The effluent from the column was split using a Gerstel™ GraphPack-3D/2 splitter with a ratio of ˜1 to the GC (FID): 4 to an electroantennogram preparation of a CPB adult (EAD). The EAD preparation was an adult CPB antenna removed and mounted between two glass capillary electrodes filled with 0.1M NaCl. Ag—AgCl wires in the glass capillaries. An effluent conditioning assembly to carry GC effluent over a CPB antennal preparation, hardware, and software for data collection and analyses using a computer were obtained from SYNTECH (Hilversum, the Netherlands). After an initial temperature of 50° C. held for 2 minutes following injection, the GC oven increased at 15° C./min to 235° C. which was held for 8 minutes.
as §1

CC(C)=CCC[C@@](C)(O)C(=O)CO [(R)-CPB I]
orientation preference (in words) [1]: inactive | orientation preference (in words) ([1]; listed as (R)-enantiomer): no significant preference | action potentials during 500 msec following the initial phasic increase [2]: 9 action potentials

COC(=O)/C=C(\C)CC/C=C(\C)CC[C@H]1OC1(C)C [JH III, juvenile hormone III]
production of CPB I after topical treatment (male CPB; 10 μg JH III topical, 20 males, 24 hour collection, untreated mean 53 ng): 396.2 ng | enhancement of collections of CPB I (male CPB; JH III and antennectomy): ~200 × | enhancement of CPB I production relative to untreated males (male CPB; JH III topical alone): eightfold | production of CPB I after combined treatment (male CPB; JH III topical and antennectomy): 8833 ng | increase of quantities of CPB I released vs control insects (male CPB; JH III treatment and antennectomy): 166 times

CC(C)=CCCC(C)(O)C(=O)CO (racemic) [racemic CPB I, 3,7-dimethyl-2-oxo-oct-6-ene-1,3-diol]
orientation preference (in words) [1]: no significant preference | Mean EAG (in words) (CPB adult antenna; 10 ng injection, males and females combined): intermediate response | action potentials during 500 msec following the initial phasic increase [2]: 18 action potentials

CCCCCCCCC=O [nonanal, reference compound]
EAD response to compound in volatile collections (in words) (CPB adult antenna): EAD responses were present

OCCc1ccccc1 [2-phenyl ethanol, reference compound]
EAD response to compound in volatile collections (in words) (CPB adult antenna): an EAD response for 2-phenyl ethanol was also observed
